Like-named read-outs stand apart in the source and are kept apart here.
Key:
[1] = test system: CPT1A gene expression in Huh-7 cells; assay: Huh-7 differential gene expression, CPT1A RT-qPCR (Assay 3); format: cell-based; conditions: Homo sapiens, Huh-7, 24 h; for EC50: read-out: Activity category Assay 3 EC50; for Emax: read-out: Activity category Assay 3 Emax
Description: Huh-7 Differential Gene Expression (Assay 3)
Fetal bovine serum (FBS) was incubated with washed resin (50 mg resin/mL FBS; resin weight is dry weight of resin prior to washing) for 5 hr at room temperature on a rotor. The FBS was separated from the resin via centrifugation and incubated with new, washed resin for 18 h at room temperature on a rotor.
Cell Culture and Drug Treatment
Huh-7 cells were cultured in DMEM (10-013-CM, Corning) supplemented with 10% FBS and 1% Pen-Strep at 37° C. under 5% C02. When 70-80% confluence was reached, the cells were removed by trypsinization. The medium was aspirated from the cell culture dish, the cell monolayer was washed with 1×PBS, and 0.05% trypsin, 0.53 mM EDTA (25-052-CV, Corning) solution was added to the dish. After 3 min incubation, the cells were detached completely by repeatedly pipetting solution onto the monolayer. Equal volume of DMEM supplemented with 10% rFBS and 1% Pen-Strep (TH-depleted DMEM) was added to the dish to inactivate the trypsin. The cell suspension was centrifuged at 350×g at room temperature for 3 min. The supernatant was aspirated out and the cell pellet was resuspended in TH-depleted DMEM. […] After 24 hr incubation, the media was replaced with treatment media. All compounds were serially diluted in DMSO and final concentrations were reached by dilution in TH-depleted DMEM (0.1% DMSO). The cells were incubated in treatment media for 24 hr. Treatments were performed in biological duplicates.
After 24 hr in treatment media, the cells were lysed directly on the culture plates and cDNA was produced using the TaqMan™ Fast Advanced Cells-to-CT™ Kit (A35374, Invitrogen) and following the manufacturer's protocol. RT-qPCR for CPT1A (Hs00912671_m1) and two housekeeping genes, ACTB (Hs01060665_g1) and TFG (Hs02832013_g1), was performed using TaqMan™ Fast Advanced Master Mix. RT-qPCR reactions were run on the qTOWER^3 84 G (Analytik Jena) in technical duplicates.
ΔRn values were obtained from the qPCRsoft384 1.0 software and CPT1A gene expression was quantified via the 2-ΔΔCt method. Dose-response curves were generated using GraphPad Prism 8 using four parameter logistic equation without top constraint to derive EC50 and Emax.

THR alpha = target: T1, THR alpha (Homo sapiens, UniProt P10827); assay: HEK293T THR alpha/RXR luciferase reporter assay (Assay 2); format: cell-based; conditions: Assay 2; for Emax: HEK-293T, Table 5, THRα, read-out: Activity category Assay 2 THRα (Emax); for EC50: Table 4, THR-alpha, read-out: Activity category Assay 2 (EC50, THR-alpha agonist activity)
T1 construct: expressed in transfected cells; host or cells: HEK293T (ATCC CRL-3216)
T1 sequence (P10827 1-410 isoform P10827-2): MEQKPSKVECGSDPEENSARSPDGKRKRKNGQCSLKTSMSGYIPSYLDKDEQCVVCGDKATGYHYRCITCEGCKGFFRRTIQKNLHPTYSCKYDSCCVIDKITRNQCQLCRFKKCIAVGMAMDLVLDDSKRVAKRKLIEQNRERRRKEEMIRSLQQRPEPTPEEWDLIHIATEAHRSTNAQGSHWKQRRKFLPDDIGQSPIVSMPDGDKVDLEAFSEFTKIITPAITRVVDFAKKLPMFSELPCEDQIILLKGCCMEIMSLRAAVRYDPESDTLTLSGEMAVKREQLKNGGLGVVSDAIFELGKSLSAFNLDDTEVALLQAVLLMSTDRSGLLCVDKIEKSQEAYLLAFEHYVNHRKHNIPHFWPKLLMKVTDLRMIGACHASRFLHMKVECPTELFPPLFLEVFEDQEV
T1 sequence (P19793 1-462 partner): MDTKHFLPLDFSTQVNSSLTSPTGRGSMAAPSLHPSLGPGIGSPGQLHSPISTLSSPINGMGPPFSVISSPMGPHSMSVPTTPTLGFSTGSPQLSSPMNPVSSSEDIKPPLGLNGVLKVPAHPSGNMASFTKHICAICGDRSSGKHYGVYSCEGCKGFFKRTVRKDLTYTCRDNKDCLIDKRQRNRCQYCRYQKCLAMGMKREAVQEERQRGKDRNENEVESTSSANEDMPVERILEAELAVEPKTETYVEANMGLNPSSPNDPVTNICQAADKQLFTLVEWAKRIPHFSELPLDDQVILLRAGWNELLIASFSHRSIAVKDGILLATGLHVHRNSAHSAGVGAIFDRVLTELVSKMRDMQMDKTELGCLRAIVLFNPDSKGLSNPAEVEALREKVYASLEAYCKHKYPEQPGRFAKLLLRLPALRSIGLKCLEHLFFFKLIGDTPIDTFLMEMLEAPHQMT
Outline: (§1)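 HEK293T cells transiently transfected with TRE-luciferase reporter, RXR, and THR alpha or THR beta plasmid; ten five-fold compound dilutions from DMSO added for 18-24 h. One-Glo luminescence read; percent agonism normalized between negative and positive controls.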

[2] = target: T2, human thyroid receptor beta ligand-binding domain (LBD) (Homo sapiens, UniProt P10828); assay: TR-FRET thyroid receptor beta coactivator assay (THR biochemical assay, Assay 1); conditions: for EC50: THR-beta, TR-FRET coactivator assay, read-out: Activity category Assay 1 (EC50, THR-beta agonist); for Emax: Table 5, Assay 1, THRβ, read-out: Activity category Assay 1 THRβ (Emax)
T2 construct: purchased Invitrogen
T2 sequence (P10828 217-461 limits assumed): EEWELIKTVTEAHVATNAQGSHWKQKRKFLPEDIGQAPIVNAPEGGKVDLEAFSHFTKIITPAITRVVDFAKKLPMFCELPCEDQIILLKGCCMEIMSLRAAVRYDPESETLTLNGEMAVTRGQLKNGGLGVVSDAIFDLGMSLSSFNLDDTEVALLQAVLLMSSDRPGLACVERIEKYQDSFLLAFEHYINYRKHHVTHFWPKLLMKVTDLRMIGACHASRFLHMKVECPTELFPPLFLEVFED
Outline: (§2)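 GST-tagged human TRβ or TRα LBD, 1 nM final (stated for β), with fluorescein-SRC2-2 coactivator peptide (200 nM) and Tb-anti-GST antibody (2 nM). Agonists serially diluted, 1% DMSO final. 1 h incubation at rt in the dark; TR-FRET read as rise in fluorescein and drop in terbium emission.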

[3] = target: T3, human thyroid receptor alpha ligand-binding domain (LBD) (Homo sapiens, UniProt P10827); assay: TR-FRET thyroid receptor alpha coactivator assay (THR biochemical assay, Assay 1); conditions: for EC50: Table 4, THR-alpha, read-out: Activity category Assay 1 (EC50, THR-alpha agonist activity); for Emax: Table 5, THRα, read-out: Activity category Assay 1 THRα (Emax)
T3 construct: purchased Invitrogen
Outline: as §2

THR beta = target: T4, THR beta (Homo sapiens, UniProt P10828); assay: HEK293T THR beta/RXR luciferase reporter assay (Assay 2); format: cell-based; conditions: for Emax: HEK-293T, Table 5, Assay 2, THRβ, read-out: Activity category Assay 2 THRβ (Emax); for EC50: THR-beta, HEK293T reporter assay, read-out: Activity category Assay 2 (EC50, THR-beta agonist)
T4 construct: expressed in transfected cells; host or cells: HEK293T (ATCC CRL-3216)
T4 sequence (P10828 1-461): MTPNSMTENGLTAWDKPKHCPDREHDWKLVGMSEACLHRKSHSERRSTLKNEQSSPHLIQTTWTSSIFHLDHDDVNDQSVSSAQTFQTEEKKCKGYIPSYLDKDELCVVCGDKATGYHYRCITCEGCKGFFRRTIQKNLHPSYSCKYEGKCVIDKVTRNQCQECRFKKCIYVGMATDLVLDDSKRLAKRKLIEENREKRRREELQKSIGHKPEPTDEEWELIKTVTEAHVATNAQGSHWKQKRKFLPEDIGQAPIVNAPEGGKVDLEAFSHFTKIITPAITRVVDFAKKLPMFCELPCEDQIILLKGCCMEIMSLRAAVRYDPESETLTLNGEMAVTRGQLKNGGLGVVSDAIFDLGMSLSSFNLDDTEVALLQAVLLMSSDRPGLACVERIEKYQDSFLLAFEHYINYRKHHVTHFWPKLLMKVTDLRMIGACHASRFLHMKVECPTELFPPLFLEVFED
T4 sequence (P19793 1-462 partner): T1 sequence (P19793 1-462 partner)
Outline: as §1

[4] = Table 6, Huh-7 cells, CPT1A, 24 hr treatment

Row | Compound | EC50 [1, 4] | Emax (THR alpha) | EC50 (THR alpha) | EC50 [2] | Emax [2] | EC50 [3] | Emax [3] | Emax (THR beta) | EC50 (THR beta) | Emax [1, 4] | EC50 [1] | Emax [1]
1 | Nc1nn(-c2cc(Cl)c(Oc3cc(C4CCCC4)c(=O)[nH]n3)c(Cl)c2)c(=O)[nH]c1=O [Compound 42, 6-amino-2-(3,5-dichloro-4-((5-cyclopentyl-6-oxo-1,6-dihydropyridazin-3-yl)oxy)phenyl)-1,2,4-triazine-3,5(2H,4H)-dione] | < 100 nM | – | – | – | – | – | – | – | – | 50 to 75% | – | –
2 | Nc1nn(-c2cc(Cl)c(Oc3cc(C4(F)CCCC4)c(=O)[nH]n3)c(Cl)c2)c(=O)[nH]c1=O [Compound 144, 6-amino-2-(3,5-dichloro-4-[[5-(1-fluorocyclopentyl)-6-oxo-1H-pyridazin-3-yl]oxy]phenyl)-4H-1,2,4-triazine-3,5-dione] | – | 50 to 75% | 1000 to 10000 nM | 50 to 250 nM | < 50% | 250 to 1000 nM | < 50% | 50 to 75% | 250 to 1000 nM | – | – | –
3 | Nc1nn(-c2cc(Cl)c(Oc3cc(C4CC(F)(F)C4)c(=O)[nH]n3)c(Cl)c2)c(=O)[nH]c1=O [Compound 106] | – | < 50% | 1000 to 10000 nM | 250 to 1000 nM | < 50% | 1000 to 25000 nM | < 50% | 50 to 75% | 1000 to 10000 nM | – | – | –
4 | Nc1nn(-c2cc(Cl)c(Oc3cc(C4CCCCC4)c(=O)[nH]n3)c(Cl)c2)c(=O)[nH]c1=O [Compound 58] | – | 50 to 75% | 250 to 1000 nM | < 50 nM | < 50% | 250 to 1000 nM | < 50% | > 75% | 50 to 250 nM | – | – | –
5 | N[C@@H](Cc1cc(I)c(Oc2ccc(O)c(I)c2)c(I)c1)C(=O)O [Compound T3, triiodothyronine, reference compound] | – | – | – | – | – | – | – | – | – | – | < 100 nM | > 75%
6 | Cc1cc(-n2nc(C#N)c(=O)[nH]c2=O)cc(C)c1Cc1cnc2[nH]cc(C(C)C)c2n1 [Compound 66, 2-[4-[(7-isopropyl-5H-pyrrolo[2,3-b]pyrazin-2-yl)methyl]-3,5-dimethyl-phenyl]-3,5-dioxo-1,2,4-triazine-6-carbonitrile] | – | 50 to 75% | 1000 to 10000 nM | 50 to 250 nM | 50 to 75% | 250 to 1000 nM | < 50% | > 75% | 1000 to 10000 nM | – | – | –

Second part, led by results:

Row | EC50 [1, 4] | Emax (THR alpha) | EC50 (THR alpha) | EC50 [2] | Emax [2] | EC50 [3] | Emax [3] | Emax (THR beta) | EC50 (THR beta) | Compound | Emax [1, 4] | EC50 [1] | Emax [1]
7 | < 100 nM | – | – | – | – | – | – | – | – | C#Cc1nn(-c2cc(Cl)c(Oc3cc(C(C)C)c(=O)[nH]n3)c(Cl)c2)c(=O)[nH]c1=O [Compound 11, 2-[3,5-dichloro-4-[(5-isopropyl-6-oxo-1H-pyridazin-3-yl)oxy]phenyl]-6-ethynyl-4H-1,2,4-triazine-3,5-dione] | > 75% | – | –
8 | > 100 nM | – | – | – | – | – | – | – | – | CC(C)c1cc(Oc2c(Cl)cc(-n3nc(CC(=O)O)c(=O)[nH]c3=O)cc2Cl)n[nH]c1=O [Compound 13, 2-(2-(3,5-dichloro-4-((5-isopropyl-6-oxo-1,6-dihydropyridazin-3-yl)oxy)phenyl)-3,5-dioxo-2,3,4,5-tetra-hydro-1,2,4-triazin-6-yl)acetic acid] | > 75% | – | –
9 | – | < 50% | > 10000 nM | > 25000 nM | < 50% | > 25000 nM | < 50% | < 50% | > 10000 nM | CC(C)NC(=O)c1c[nH]c2ccc(Oc3c(Cl)cc(-n4nc(C#N)c(=O)[nH]c4=O)cc3Cl)cc12 [Compound 20] | – | – | –
10 | – | < 50% | > 10000 nM | 50 to 250 nM | < 50% | 250 to 1000 nM | < 50% | < 50% | 250 to 1000 nM | Cc1ccc(-c2cc(=O)[nH]nc2Oc2c(Cl)cc(-n3nc(N)c(=O)[nH]c3=O)cc2Cl)cc1C [Compound 113] | – | – | –
11 | – | < 50% | 250 to 1000 nM | < 50 nM | < 50% | < 50 nM | < 50% | > 75% | 250 to 1000 nM | CC(C)Cc1c[nH]c2ccc(Oc3c(Cl)cc(-n4nc(C#N)c(=O)[nH]c4=O)cc3Cl)cc12 [Compound 49, 2-(3,5-dichloro-4-[[3-(2-methylpropyl)-1H-indol-5-yl]oxy]phenyl)-3,5-dioxo-4H-1,2,4-triazine-6-carbonitrile] | – | – | –

— US12180192B2, “Modulators of THR-β and methods of use thereof” (ALIGOS THERAPEUTICS, INC., priority 2019, dated 2024)
